Assay [1] can be described thus: In vivo studies of vascular stiffening. To be noted: in vivo studies in rodents, canines and in primates. An excerpt:
(§1) Cardiovascular risk correlates more closely with the systolic and the pulse pressure than with the diastolic pressure. In diabetic patients, the cardiovascular risk profile of diabetic patients is strongly correlated to duration of diabetes, glycemic control and blood pressure. Structural matrix proteins contribute to the function of vessels and the heart, and changes in the physical behavior of cardiovascular walls are believed to be important determinants of circulatory function. In elderly individuals, the loss of compliance in the aorta leads to isolated systolic hypertension, which in turn expands the arterial wall and thereby diminishes the dynamic range of elasticity. Loss of compliance also results in the development of left ventricular hypertrophy.

Assay [2] has as its system Type IV collagen. The assay is described as follows: In situ hybridization studies, Type IV collagen expression. The format is in vivo.
Description: as §1

Assay [3] can be described thus: Dog model for diabetes, ventricular elasticity. The format is in vivo.
Description: as §1

In assay [4] the test system is TGFbeta. The assay is described as follows: In situ hybridization studies, TGFbeta expression. The format is in vivo.
Description: as §1

A short description of assay [5]: Phase IIa clinical trial. It counts as in vivo, human. An excerpt:
When the heart pumps blood into the vascular system, the ability of the arteries to expand helps to push blood through the body. When arteries become stiff, as they do in the natural process of aging, the ability of the arteries to expand is diminished and also has consequences for the heart. The heart has to work harder to pump the blood into the stiff arteries, and eventually hypertrophies (enlarges in size) to accomplish this. A hypertrophied heart is an inefficient pump, and is one of the disorders that leads to congestive heart failure. […] The potential clinical benefit of this is to lessen the effort that the heart must expend to push blood throughout the body. The effect is also believed to contribute to preventing hypertrophy and subsequent inefficiency of the heart, which inefficiency would contribute to congestive heart failure.
Atherosclerosis is a disease that involves deposition of blood lipids in plaque in the arteries throughout the body. In coronary arteries, accumulation of plaque progressively leads to reduced coronary flow, with occlusion of the arteries causing focal death of cardiac tissue (myocardial infarction, heart attack). If the amount of tissue that dies is large enough, death ensures. […] Reducing local deposits of plaque should eventually lessen the risk of myocardial infarction and death due to heart attacks.
Pulse pressure is the difference between systolic and diastolic blood pressure. In a young human, systolic pressure is typically 120 mm Hg and diastolic pressure is 80 mm Hg, resulting in a pulse pressure of 40 mm Hg. With age, in many individuals pulse pressure increases, largely due to the increase in systolic pressure that results from stiff vessel disease. In individuals with pulse pressure greater than 60 mm Hg there is an increased risk of death from cardiovascular morbidities. […] This decrease in pulse pressure was believed to be due primarily to the effect of the agent on lowering the systolic blood pressure.

The subject of assay [6] is collagen in cardiovascular tissues. Nature of the assay: Mass of collagen in cardiovascular tissues after treatment. It counts as in vivo.
Description: as §1

We go through one molecule from patent US20030004194A1, “Method for treating fibrotic diseases or other indications VI” (Alteon, Inc., priority 2001, published 2003).

Where a name gives a salt, the structure may show the parent alone.

For the molecule `Cc1sc[n+](CC(=O)c2ccccc2)c1C` [3-[2-phenyl-2-oxoethyl]-4,5-dimethyl-thiazolium salt], in assay [1], the vascular stiffening result is “substantially ameliorating vascular stiffening”. Besides, the “expression of Type IV collagen” value in assay [2] is on record as “reduces the expression”. Also, in assay [3], the “end diastolic pressure (indicator of ventricular elasticity)” value was “returned to a value at about the mid-point between the disease impaired value and the value for control dogs”; the “end diastolic volume (indicator of ventricular elasticity)” value is “returned to a value at about the mid-point between the disease impaired value and the value for control dogs”. Moreover, in assay [4], the “expression of TGFbeta” value is on record as “reduces the expression”. For the same molecule, in assay [5] (Phase IIa clinical trial), the “stiffness of arteries, as measured by the ratio of stroke volume (ml) to pulse pressure (mm Hg)” value was “showed an ability to reverse the stiffness of arteries”. In assay [5] (Phase IIa trial), the “amount of circulating triglycerides (lipids)” value is recorded as “increased the amount of circulating triglycerides”. For the same molecule, in assay [5] (Phase IIa trial, elderly patients with pulse pressures greater than 60 mm Hg, statistically significant), the pulse pressure entry is reported as “reduced pulse pressure”. For the same molecule, the “mass of collagen in cardiovascular tissues” value in assay [6] is recorded as “reduction in the mass of collagen”.
